Assay results taken from patent US10836708B2, “Process for the synthesis of (s) 3-amino-4-(difluoromethylenyl)cyclopent-1-ene-1-carboxylic acid” (NORTHWESTERN UNIVERSITY, priority 2018, dated 2020).

What was measured:
[1] = tested on: γ-aminobutyric acid aminotransferase (GABA-AT); conditions: statement in the background section; cited from earlier work
[2] = tested on: aspartate aminotransferase; conditions: off-target aminotransferase enzyme; cited from earlier work
[3] = tested on: release of dopamine in the corpus striatum; conditions: rats; after exposure to cocaine or nicotine; compared with previous inhibitors of GABA-AT; cited from earlier work
alanine aminotransferase = conditions: off-target aminotransferase enzyme; cited from earlier work
[4] = molecular target: hERG potassium ion channel (Homo sapiens, UniProt Q12809); conditions: cited from earlier work
Chain of hERG potassium ion channel (Q12809 whole entry): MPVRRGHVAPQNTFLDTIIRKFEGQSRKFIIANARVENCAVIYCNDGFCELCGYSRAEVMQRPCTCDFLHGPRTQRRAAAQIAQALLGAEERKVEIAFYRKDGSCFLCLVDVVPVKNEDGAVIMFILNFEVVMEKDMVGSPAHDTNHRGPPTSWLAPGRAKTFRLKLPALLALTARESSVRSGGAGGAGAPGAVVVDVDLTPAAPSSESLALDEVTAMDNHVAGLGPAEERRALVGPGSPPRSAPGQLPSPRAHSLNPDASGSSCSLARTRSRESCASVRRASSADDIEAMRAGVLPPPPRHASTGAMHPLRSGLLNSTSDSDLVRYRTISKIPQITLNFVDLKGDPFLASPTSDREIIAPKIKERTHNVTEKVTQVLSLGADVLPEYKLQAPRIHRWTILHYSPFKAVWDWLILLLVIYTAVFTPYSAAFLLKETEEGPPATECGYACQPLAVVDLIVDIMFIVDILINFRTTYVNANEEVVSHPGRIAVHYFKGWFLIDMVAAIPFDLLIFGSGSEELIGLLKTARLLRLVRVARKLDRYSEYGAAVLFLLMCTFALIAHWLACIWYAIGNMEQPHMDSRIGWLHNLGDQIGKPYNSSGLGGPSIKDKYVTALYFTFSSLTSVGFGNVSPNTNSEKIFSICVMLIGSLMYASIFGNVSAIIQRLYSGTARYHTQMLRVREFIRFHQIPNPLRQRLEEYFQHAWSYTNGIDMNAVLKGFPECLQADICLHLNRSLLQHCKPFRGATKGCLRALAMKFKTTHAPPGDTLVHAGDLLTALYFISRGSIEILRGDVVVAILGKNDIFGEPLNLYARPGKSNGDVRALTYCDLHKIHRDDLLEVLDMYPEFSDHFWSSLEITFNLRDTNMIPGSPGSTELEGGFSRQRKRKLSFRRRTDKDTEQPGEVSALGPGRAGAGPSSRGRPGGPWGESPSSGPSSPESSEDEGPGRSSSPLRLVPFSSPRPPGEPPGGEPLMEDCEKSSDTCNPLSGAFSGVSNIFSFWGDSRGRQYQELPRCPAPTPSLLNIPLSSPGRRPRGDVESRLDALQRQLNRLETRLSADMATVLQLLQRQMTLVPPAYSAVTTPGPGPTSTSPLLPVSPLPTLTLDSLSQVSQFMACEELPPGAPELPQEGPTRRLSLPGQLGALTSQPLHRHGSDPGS

[5] = tested on: various microsomal cytochrome P450 enzymes; conditions: cited from earlier work
[6] = with prolonged use; cited from earlier work
multiple GABA receptors = conditions: cited from earlier work

melting point [°C]	SMILES	inhibitor of GABA-AT [1]	inhibition of aspartate aminotransferase [2]	suppressing the release of dopamine in the corpus striatum [3]	inhibition of alanine aminotransferase (alanine aminotransferase)	inhibition of the hERG potassium ion channel [4]	inhibition of various microsomal cytochrome P450 enzymes [5]	retinal damage, share of patients [6]	inhibition of multiple GABA receptors (multiple GABA receptors)
139 to 141	O=C1N[C@@H]2C(=C(F)F)C[C@H]1[C@H]2Br								
	N[C@H]1C=C(C(=O)O)CC1=C(F)F [(S)-3-amino-4-(difluoromethylenyl)cyclopent-1-ene-1-carboxylic acid]	inhibitor	does not inhibit	superior	does not inhibit	does not inhibit	does not inhibit		
	C=CC(N)CCC(=O)O (stereo not shown) [Vigabatrin, 4-Aminohex-5-enoic acid]	inhibitor						25-40 % of patients	inhibits
